# Molecular target: T1, human GPR120 (Homo sapiens, UniProt Q5NUL3)
# T1 construct: expressed in transfected cells
# T1 sequence (Q5NUL3 1-361): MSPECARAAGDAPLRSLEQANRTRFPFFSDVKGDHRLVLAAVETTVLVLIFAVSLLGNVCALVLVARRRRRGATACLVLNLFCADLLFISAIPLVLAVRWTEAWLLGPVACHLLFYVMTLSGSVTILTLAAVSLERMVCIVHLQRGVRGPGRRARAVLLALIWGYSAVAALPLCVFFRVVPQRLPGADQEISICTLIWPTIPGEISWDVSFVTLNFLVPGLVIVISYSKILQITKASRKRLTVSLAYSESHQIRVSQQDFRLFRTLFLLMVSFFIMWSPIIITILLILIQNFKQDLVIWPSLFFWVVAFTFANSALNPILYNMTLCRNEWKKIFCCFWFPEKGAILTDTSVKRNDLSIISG
# Experiment: Measurement of intracellular calcium concentration (FLIPR), GPR120 agonist action
# Type: cell-based
# Settings: human GPR120 expression CHO cells, Fluo-4 AM, read-out: IC50 (GPR120 agonist action)
row,EC50,SMILES
1,620 nM,"Cc1oc(-c2ccccc2)nc1CCOc1ccc(-c2cc(O)no2)cc1 [Example 33, 5-(4-(2-(5-methyl-2-phenyl-1,3-oxazol-4-yl)ethoxy)phenyl)isoxazol-3-ol]"
2,170 nM,"Oc1cc(-c2ccc(COc3cccc(Oc4ccccc4)c3)cc2)on1 [Example 45, 5-(4-((3-phenoxyphenoxy)methyl)phenyl)isoxazol-3-ol]"
3,250 nM,Oc1cc(-c2ccc(OCCc3cccc(Oc4ccccc4)c3)cc2)on1 [Example 38]
4,100 nM,"CCOc1cccc(OCCc2ccc(-c3cc(O)no3)cc2)c1 [Example 36, 5-(4-(2-(3-ethoxyphenoxy)ethyl)phenyl)isoxazol-3-ol]"
5,300 nM,"Oc1cc(-c2cc(F)c(OCc3ccccc3Oc3ccccc3)c(F)c2)on1 [Example 26, 5-(3,5-difluoro-4-((2-phenoxybenzyl)oxy)phenyl)isoxazol-3-ol]"
6,180 nM,"Oc1cc(-c2ccc(OCc3cccc(Oc4ccccc4)n3)cc2)on1 [Example 3, 5-(4-((6-phenoxypyridin-2-yl)methoxy)phenyl)isoxazol-3-ol]"
7,180 nM,"Oc1cc(-c2ccc(OCc3ccccc3Oc3ccccc3)nc2)on1 [Example 9, 5-(6-((2-phenoxybenzyl)oxy)pyridin-3-yl)isoxazol-3-ol]"
8,150 nM,CC(C)Nc1cccc(CCOc2ccc(-c3cc(O)no3)cc2)c1 [Example 41]
9,70 nM,"CC(C)Sc1ncccc1COc1ccc(-c2cc(O)no2)cc1 [Example 15, 5-(4-((2-(isopropylthio)pyridin-3-yl)methoxy)phenyl)isoxazol-3-ol]"
10,280 nM,"COCc1cccc(CCOc2ccc(-c3cc(O)no3)cc2)c1 [Example 43, 5-(4-(2-(3-(methoxymethyl)phenyl)ethoxy)phenyl)isoxazol-3-ol]"

# Source: patent US8367708B2, “Phenyl-isoxazol-3-ol derivative” (MSD K.K., priority 2006, dated 2013)
